The subject of assay [1] is B. anthracis Sterne strain bacilli. Format: cell-based, Bacillus anthracis.
In assay [2] the test system is B. anthracis Sterne strain spores. Format: cell-based, Bacillus anthracis.
The test system of assay [3] is E. coli parent strain (BW25113). In words: Antimicrobial assay against E. coli parent strain (cfu/mL). Format: cell-based, Escherichia coli.
Another assay has as its system E. coli ΔaceE. In words: Antimicrobial assay against E. coli ΔaceE (cfu/mL). Format: cell-based, Escherichia coli. As to conditions: 2 h.
Assay [4] has as its system E. coli transposon mutants Tnx 6 and Tnx 15. In words: Secondary screen of E. coli transposon mutants (cfu/mL). The settings on record: 6 μg/mL for 2 h. Format: cell-based, Escherichia coli.
For assay [5], the system named is E. coli ΔaceE, ΔaceF and ΔlpdA. In words: Antimicrobial assay against E. coli PDHc subunit deletion mutants (cfu/mL). Format: cell-based, Escherichia coli. The settings on record: concentrations as high as 48 μg/mL; 2 h.

Entries after “also recorded” stand apart in the source; their conditions may differ.

On to human CXCL9, for which, in assay [1], the “antimicrobial activity against the vegetative form (bacilli)” value (“antimicrobial activity … (bacilli)” below) is listed as “directly kill vegetative cells; also recorded: antimicrobial activity against the vegetative form”; the “hierarchy of activity in ability to kill bacilli and block spore germination” value (“hierarchy of activity in ability” below) is listed as “CXCL10>CXCL9>CXCL11”; the “hierarchy of direct antimicrobial activity” value is recorded as “hCXCL10>hCXCL9>hCXCL11”. The “effect on spore form / spore germination” value in assay [2] was “direct inhibitory effects on spore germination; also recorded: spore germination was blocked or reduced”.
On to CCL5 [reference compound], for which the “antimicrobial activity … (bacilli)” value in assay [1] is recorded as “no antimicrobial activity”. In addition, the “effect on spore form / spore germination” value in assay [2] was “no antimicrobial activity”.
On to CCL2 [reference compound], for which the “antimicrobial activity … (bacilli)” value in assay [1] is reported as “no antimicrobial activity”. The “effect on spore form / spore germination” value in assay [2] is listed as “no antimicrobial activity”.
Turning to human CXCL10, the “effect on parent strain” value in assay [3] (6 μg/mL) is on record as “not entirely killed”. Also, the “effect on parent strain” value in assay [3] (10 μg/mL for 2 hours) was “killed”. Further, the “effect on parent strain” value in assay [3] (36 μg/mL (4.2 μM) and 48 μg/mL (5.6 μM)) is listed as “killed”. Further, in assay [3] (pBR322 or pUVA411, increasing concentrations, 2 h), the “susceptibility of parent strain complemented with empty vector or aceE vector” value is reported as “remained similarly susceptible”. Besides, in assay [1], the EC50 value lay within 4 to 6 µg/mL; the “EC50 value, killing effect” value was 0.33 µg/mL; the “antimicrobial activity … (bacilli)” value was “directly kill vegetative cells; also recorded: antimicrobial activity against the vegetative form”; the “hierarchy of activity in ability” value is recorded as “CXCL10>CXCL9>CXCL11”. In assay [1], the “hierarchy of direct antimicrobial activity” value is “hCXCL10>hCXCL9>hCXCL11” and the “more potent killing effect, stationary vs exponential phase” value was more than 10 fold. Further, the “susceptibility of ΔaceE” value with E. coli ΔaceE (increasing concentrations, compared to parent strain) is given as “significantly less susceptible; also recorded: exhibits resistance; also recorded: resistant”. Further, the “susceptibility of ΔaceE complemented with aceE” value with E. coli ΔaceE (plasmid pUVA411 (aceE)) is on record as “restored susceptibility; also recorded: restores the parent strain susceptibility phenotype”. In assay [4], the “susceptibility of Tnx 6 and Tnx 15 in relation to the parent strain” value was “significantly decreased susceptibility”. In addition, the “susceptibility of ΔaceE, ΔaceF and ΔlpdA deletion mutants” value in assay [5] is on record as “equally resistant”. Besides, the “effect on spore form / spore germination” value in assay [2] was “direct inhibitory effects on spore germination; also recorded: spore germination was blocked or reduced”.

B1: murine CXCL9 (protein, listed as Mus musculus)
chain: KSAVLFLLGIIFLEQCGVRGTLVIRNARCSCISTSRGTIHYKSLKDLKQFAPSPNCNKTEIIATLKNGDQTCLDPDSANVKKLMKEWE
Turning to B1, in assay [1], the “hierarchy of activity in ability” value is recorded as “CXCL9>CXCL10>CXCL11”; the “hierarchy of direct antimicrobial activity” value is given as “mCXCL9>mCXCL10>mCXCL11”.

B2: human CXCL11 (protein, listed as Homo sapiens)
chain: QGFPMFKRGRCLCIGPGVKAVKVADIEKASIMYPSNNCDKIEVIITLKENKGQRCLNPKSKQARLIIKKVERKNF
As for B2, in assay [1], the “antimicrobial activity … (bacilli)” value is on record as “directly kill vegetative cells; also recorded: antimicrobial activity against the vegetative form”; the “hierarchy of activity in ability” value is “CXCL10>CXCL9>CXCL11”; the “hierarchy of direct antimicrobial activity” value is recorded as “hCXCL10>hCXCL9>hCXCL11”. The “effect on spore form / spore germination” value in assay [2] was “direct inhibitory effects on spore germination; also recorded: spore germination was blocked or reduced”.

B3: murine CXCL11 (protein, listed as Mus musculus)
chain: QGFLMFKQGRCLCIGPGMKAVKMAEIEKASVIYPSNGCDKVEVIVTMKAHKRQRCLDPRSKQARLIMQAIEKKNF
B3: in assay [1], the “hierarchy of activity in ability” value is “CXCL9>CXCL10>CXCL11”; the “hierarchy of direct antimicrobial activity” value is given as “mCXCL9>mCXCL10>mCXCL11”.

B4: murine CXCL10 (protein, listed as Mus musculus)
chain: MNPSAAVIFCLILLGLSGTQGIPLARTVRCNCIHIDDGPVRMRAIGKLEIIPASLSCPRVEIIATMKKNDEQRCLNPESKTIKNLMKAFSQKRSKRAP
With B4, in assay [1], the “hierarchy of activity in ability” value is reported as “CXCL9>CXCL10>CXCL11”; the “hierarchy of direct antimicrobial activity” value is “mCXCL9>mCXCL10>mCXCL11”.

Source of the values: patent publication US9937234B2, “Compositions and methods for using and identifying antimicrobial agents” (priority 2013, dated 2018).
